Test results taken from article PMC4567410 (Virology, 2015).
pIC50: −log10 of the molar value. Read-outs that look alike come from different tables or passages of the source.

Key:
A3G [1] = format: cell-based, human; settings: for effect on A3G protein levels: absence of redoxal treatment
Vif [2] = test: Vif protein stability in transfected 293T cells, CHX time course; format: cell-based, HIV-1; settings: 1250 nM 36 h, then CHX
HIV-1NL4-3 [3] = test: HIV-1NL4-3 spreading infection in CEM cells; format: cell-based; settings: CEM cells (high A3G); 312.5, 625, 1250 nM; 3, 6, 9 days
A3G [4] = settings: infected CEM cells, 1250 nM, 6 days post infection
Vif-CBFβ interaction = Vif-CBFβ interaction (Human immunodeficiency virus type 1 group M subtype B, UniProt P12504); format: cell-based; settings: unpublished preliminary co-immunoprecipitation experiments
HIV-1 89BZ167 = HIV-1 89BZ167 replication in PBMCs; format: cell-based; settings: HIV-1 isolate 89BZ167 in PBMCs, 7 days, RT assay
HIV-1NL4-3 [5] = test: HIV-1NL4-3 spreading infection in CEM-SS cells; format: cell-based; settings: CEM-SS cells (very low A3G); 312.5, 625, 1250 nM
[6] = tested on: VSV-G pseudotyped NL4-3GFPΔEnv viruses; format: cell-based, HIV-1
Vif [7] = test: Western blot of Vif in HIV-1 infected CEM cell lysates; settings: infected CEM cells, 1250 nM
HIV-1 91US001 = HIV-1 91US001 replication in PBMCs; format: cell-based; settings: HIV-1 isolate 91US001 in PBMCs, 7 days, RT assay
[8] = tested on: VSV-G pseudotyped NL4-3GFPΔEnv viruses; format: cell-based, HIV-1; remark: listed apart in the source
Vif-Cul5 interaction = Vif-Cul5 interaction (Human immunodeficiency virus type 1 group M subtype B, UniProt P12504); test: Co-immunoprecipitation of Vif and Cul5 from 293T cells; format: cell-based; settings: 1250 nM, 40 h
SupT1 T cells = test: Cytotoxicity in SupT1 T cells; settings: concentrations greater than 125 nM
HIV-1NL4-3 [9] = test: HIV-1NL4-3 replication in SupT1; format: cell-based; settings: SupT1 T cells lacking A3G, 62.5 and 125 nM
HIV-1Ba-L = test: HIV-1 Ba-L replication in PBMCs; format: cell-based; settings: Human immunodeficiency virus 1, PBMC, 168 h
H9 cells = test: Cytotoxicity in H9 T cells; settings: concentrations greater than 125 nM
HIV-1NL4-3 [10] = test: HIV-1NL4-3 replication in H9; format: cell-based; settings: H9 cells expressing A3G, 62.5 and 125 nM

Sequence of Vif-CBFβ interaction (P12504 whole entry): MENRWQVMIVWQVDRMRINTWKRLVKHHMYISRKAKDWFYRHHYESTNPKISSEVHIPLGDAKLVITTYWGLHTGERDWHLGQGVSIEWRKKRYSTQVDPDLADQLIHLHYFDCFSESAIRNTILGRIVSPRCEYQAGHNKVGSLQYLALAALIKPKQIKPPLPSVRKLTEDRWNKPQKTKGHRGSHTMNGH
Sequence of Vif-Cul5 interaction (P12504 whole entry): as above

COc1cc(-c2ccc(Nc3ccccc3C(=O)O)c(OC)c2)ccc1Nc1ccccc1C(=O)O [redoxal]
A3G protein levels (A3G [1]): increased | steady-state levels of A3G protein in CHX time course (A3G [1]; 293T cells with A3G-3xHA and pNL4-3GFPΔEnv, 1250 nM 36 h, then CHX 4 h): stabilized | increase of A3G protein levels (A3G [1]; virus producer 293T cells expressing HIV-1 Vif, 1250 nM): approximately 50% | effect on Vif protein stability (Vif [2]): no significant effect | inhibition of viral replication (HIV-1NL4-3 [3]): inhibited viral replication in a dose-dependent manner | A3G protein levels (A3G [4]): modest increase | effect on Vif-CBFβ interaction (Vif-CBFβ interaction): did not disrupt | pIC50 (HIV-1 89BZ167): 6.23 | inhibition of viral replication (HIV-1NL4-3 [5]): not CEM-SS cells | decrease in infectivity [6]: approximately 50% | Vif protein levels (Vif [7]): reduced Vif protein levels | pIC50 (HIV-1 91US001): 5.76 | virus production [8]: inhibited virus production | effect on Vif-Cul5 interaction (Vif-Cul5 interaction): no effect

O=c1ccn([C@@H]2O[C@H](CO)[C@@H](O)[C@H]2O)c(=O)[nH]1 [uridine]
effect on A3G protein levels (A3G [1]): no significant effect

O=C(O)c1cc(=O)[nH]c(=O)[nH]1 [orotate]
effect on A3G protein levels (A3G [1]): no significant effect

COC(=O)c1ccc(O)c2nc3c(C=O)c(O)cc(O)c3nc12 [lomofungin]
cytotoxicity (SupT1 T cells): significant cytotoxicity | antiviral activity (HIV-1NL4-3 [9]): not in SupT1 T cells | pIC50 (HIV-1Ba-L): 7.15 | cytotoxicity (H9 cells): significant cytotoxicity | antiviral activity (HIV-1NL4-3 [10]): strong antiviral activity
